The source of these data is US10617692B2, “Pyrrolopyrimidine comprising cyclopentyl substituent” (CENTAURUS BIOPHARMA CO., LTD., priority 2016, dated 2020).

One data set has as its target JAK2 kinase (Homo sapiens (Human), UniProt O60674). Kind of data set: Assay for enzymatic activity (IC50), HTRF kinase assay. In kind it is biochemical. The note with it: ATP at Km, 120 min at 23° C. As for the experimental part: A testing platform for kinase activity of JAK2 was established based on Homogeneous Time-Resolved Fluorescence (HTRF) assay, and the activities of the compounds were tested using the platform. The compounds were subjected to three-fold gradient dilutions with 100% DMSO with a starting concentration of 1 mM (11 dilutions in total). 4 μL of each dilution was added to 96 μL of reaction buffer (50 mM HEPES, pH 7.4, 10 mM MgCl2, 1 mM EGTA, 0.01% Tween-20, 0.005% BAS, 2 mM DTT) and mixed homogeneously. […] The mixture was mixed homogeneously by centrifugation. […] The plate was incubated in the incubator for 1 hr, and then the fluorescence values were read on Envision (available from PerkinElmer). The excitation wavelength was 320 nm, and the emission wavelengths for detection were 665 nm and 620 nm. The enzymatic activity was represented by a ratio of the two readout at the two emission wavelengths. The enzymatic activity for each compound was tested at 11 concentrations, and IC50 values of the compounds were obtained by calculating the data using GraFit6.0 software (Erithacus Software)
Background: Time-resolved FRET reads energy transfer from a long-lived donor to a nearby acceptor.

The nature of data set [1]: Plasma protein binding assay (Rapid Equilibrium Dialysis), determination of free moiety. The data set is classed as in vitro ADME. The note with it: equilibrium dialysis 5 hours in human plasma at 37° C.; compounds II, III, IV at 10 μM, compound I at 1 μM and 10 μM. As for the experimental part:
Protein binding to the tested compounds was determined by equilibrium dialysis using a Rapid Equilibrium Dialysis (RED) Device system. The dialysis was performed for 5 hours in human plasma at 37° C. The compound II, the compound III, and the compound IV were incubated at 10 μM, and the compound I was incubated at 1 μM and 10 μM. The concentrations of the compounds in plasma and a buffer solution after dialysis were determined through LC-MS/MS analysis. The free moiety is defined as a ratio of the concentration in the buffer solution to the concentration in the plasma.
(In general: In equilibrium dialysis only unbound substance equilibrates across the membrane.)

Data set [2] is described as follows: Human liver microsomal stability test, determination of inherent clearance. The data set is classed as in vitro ADME. The conditions noted are these: 37° C.; for half-life at 1 μM: both sexes, 1 μM compound, human liver microsomes 0.4 mg/mL protein, 1.25 mM NADPH, 1 hour, read-out: Human liver microsome T1/2 (converted); for Human inherent CL: calculated from declination slope of compound concentration in human liver microsomes, 1 μM. The protocol: 1 μM of the tested compound was incubated for 1 hour together with human liver microsomes of mixed genders (0.4 mg/mL protein) in the presence of 1.25 mM NADPH at 37° C. to determine the inherent clearance. The disappearance of the tested compound was monitored by LC-MS/MS at 0, 10, 20, 30, 45, and 60 minute. By using the standard method reported in literatures, the declination slope of the concentration of the compound was used to calculate the inherent clearance of human.

Sequence of JAK2 kinase (O60674 whole entry): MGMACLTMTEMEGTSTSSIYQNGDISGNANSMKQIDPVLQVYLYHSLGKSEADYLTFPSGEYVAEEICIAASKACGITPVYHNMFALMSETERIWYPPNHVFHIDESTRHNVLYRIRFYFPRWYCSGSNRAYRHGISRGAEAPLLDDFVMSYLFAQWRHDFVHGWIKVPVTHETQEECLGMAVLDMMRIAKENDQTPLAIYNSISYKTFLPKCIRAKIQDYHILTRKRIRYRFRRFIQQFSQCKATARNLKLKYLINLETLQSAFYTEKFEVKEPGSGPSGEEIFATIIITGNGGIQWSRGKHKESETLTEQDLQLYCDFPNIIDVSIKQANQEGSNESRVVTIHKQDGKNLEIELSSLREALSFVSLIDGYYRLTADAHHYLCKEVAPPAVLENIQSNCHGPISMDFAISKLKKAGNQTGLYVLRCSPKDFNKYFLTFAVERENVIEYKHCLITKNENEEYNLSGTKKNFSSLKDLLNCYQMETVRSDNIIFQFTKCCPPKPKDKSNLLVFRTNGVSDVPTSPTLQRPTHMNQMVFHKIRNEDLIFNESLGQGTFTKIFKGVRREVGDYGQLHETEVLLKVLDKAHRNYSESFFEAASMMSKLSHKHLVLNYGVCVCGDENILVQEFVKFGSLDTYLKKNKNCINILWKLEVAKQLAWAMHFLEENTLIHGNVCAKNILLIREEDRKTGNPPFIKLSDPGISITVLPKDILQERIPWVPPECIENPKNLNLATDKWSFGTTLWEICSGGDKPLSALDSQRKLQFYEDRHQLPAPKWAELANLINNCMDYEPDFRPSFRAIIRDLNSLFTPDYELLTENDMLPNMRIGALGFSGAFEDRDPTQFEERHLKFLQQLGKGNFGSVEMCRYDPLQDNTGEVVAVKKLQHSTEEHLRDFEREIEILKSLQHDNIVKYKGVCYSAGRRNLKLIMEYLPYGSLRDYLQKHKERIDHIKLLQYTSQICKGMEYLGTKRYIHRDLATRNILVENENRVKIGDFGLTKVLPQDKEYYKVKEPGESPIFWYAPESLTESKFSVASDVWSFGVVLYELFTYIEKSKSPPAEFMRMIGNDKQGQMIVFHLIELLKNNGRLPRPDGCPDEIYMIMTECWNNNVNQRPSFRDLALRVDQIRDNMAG

With `N#CCC(C1CCCC1O)n1cc(-c2ncnc3[nH]ccc23)c(N)n1` (stereo not shown) [Compound II, 3-[3-amino-4-(7H-pyrrolo[2,3-d]pyrimidin-4-yl)-1H-pyrazol-1-yl]-3-(2-hydroxylcyclopentyl)propionitrile], the IC50 on JAK2 kinase was below 10 nM. Also, the “Unbound moiety (% human plasma)” value in data set [1] is recorded as 28.8%. Moreover, in data set [2], the half-life at 1 μM is above 4 h and the “Human inherent CL” value is below 5.17 mL/min/kg.

As for `N#CCC(C1CCC(=O)C1)n1cc(-c2ncnc3[nH]ccc23)c(N)n1` (stereo not shown) [Compound III, 3-[3-amino-4-(7H-pyrrolo[2,3-d]pyrimidin-4-yl)-1H-pyrazol-1-yl]-3-(3-oxocyclopentyl)propionitrile], at JAK2 kinase, the IC50 is below 10 nM. The “Unbound moiety (% human plasma)” value in data set [1] was determined as 30.4%. In data set [2], the half-life at 1 μM was above 4 h and the “Human inherent CL” value is below 5.17 mL/min/kg.

For the molecule `N#CCC(C1CCCC1=O)n1cc(-c2ncnc3[nH]ccc23)c(N)n1` (stereo not shown) [Compound IV, 3-[3-amino-4-(7H-pyrrolo[2,3-d]pyrimidin-4-yl)-1H-pyrazol-1-yl]-3-(2-oxocyclopentyl)propionitrile], the half-inhibitory concentration (IC50) at JAK2 kinase is below 30 nM. Further, the “Unbound moiety (% human plasma)” value in data set [1] is on record as 24.3%. For the same molecule, in data set [2], the half-life at 1 μM is above 4 h and the “Human inherent CL” value was below 5.17 mL/min/kg.

As to `N#CC[C@H](C1CCCC1)n1cc(-c2ncnc3[nH]ccc23)c(N)n1` [Compound I^a, (3R)-3-[3-amino-4-(7H-pyrrolo[2,3-d]pyrimidin-4-yl)-1H-pyrazol-1-yl]-3-cyclopentylpropionitrile], the half-life at 1 μM in data set [2] is 2.76 h.

By IC50 is commonly meant the concentration that inhibits the measured activity by half.
